In patent US12678511B2, “Peptide and use thereof” (Kansai Medical University Educational Corgoration, priority 2019, dated 2026):
“Also recorded” adds a separate entry of the source. Peptide text beside a SMILES is read from it.

Assays:
[1] = system: hMSC; experiment: Cell selectivity of FITC-labelled peptides: penetration into hMSC; format: cell-based, human; settings: FITC-labelled peptide 4 μM, four hours, FIG. 2
Method: (§1) Among the peptides identified in Example 1, the four peptides MSCPP33, 48, 49 and 106, Poly-r9 as a positive control and MSCPP22 as a negative control were synthesized with an FITC (fluorescein isothiocyanate) (excitation wavelength: 495 nm, fluorescence wavelength: 520 nm) label, and then subjected to a hydrochloride treatment. These peptides were each obtained via contract synthesis by Sigma-Aldrich Japan (Genosis division). The MSCPP33 was dissolved in 20% DMSO. The MSCPP48 developed a precipitate following thawing of the frozen state, and was therefore subjected to a sonication treatment prior to use. The MSCPP49 and MSCPP106 were dissolved in water prior to use.
Subsequently, the penetration of each peptide into hMSC, normal human dermal fibroblasts (NHDF), and BxPC3 cells, which are an established cell line derived from human pancreatic adenocarcinoma, was confirmed. In the case of the hMSC, cells that had been inoculated into a 24-well plate at 4×10^4 cells/well and then cultured for 24 hours in an MSC medium were used. In the case of the NHDF and BxPC3 cells, cells that had been inoculated into a 24-well plate at 4×10^4 cells/well and then cultured for 24 hours in an RPMI 1640 medium containing 10% FBS were used. Mediums (RPMI 1640 medium containing 10% FBS) containing 4 μM of each of the peptides were then added to each of the cells and cultured for four hours. Following culturing, each of the cells was subjected to nuclear staining with Hoechst 33342 (excitation wavelength: 352 nm, fluorescence wavelength: 461 nm), and was then observed using a phase difference/fluorescence microscope. In FIG. 2, the images shown on the left side are FITC fluorescence images, and the images shown on the right side are merged images of the fluorescence image and the phase difference microscope image.

[2] = system: BxPC3 cells; experiment: Cell selectivity of FITC-labelled peptides: penetration into BxPC3 cells; format: cell-based, human; settings: FITC-labelled peptide 4 μM, four hours, FIG. 2
Method: as §1
(§2) Subsequently, the penetration of each peptide into hMSC, normal human dermal fibroblasts (NHDF), and BxPC3 cells, which are an established cell line derived from human pancreatic adenocarcinoma, was confirmed. […] Following culturing, each of the cells was subjected to nuclear staining with Hoechst 33342 (excitation wavelength: 352 nm, fluorescence wavelength: 461 nm), and was then observed using a phase difference/fluorescence microscope. In FIG. 2, the images shown on the left side are FITC fluorescence images, and the images shown on the right side are merged images of the fluorescence image and the phase difference microscope image.

[3] = system: human mesenchymal stem cells (hMSC), line UE6E7T-3; experiment: Penetration of MSCPP-EGFPHIS fusion peptides into hMSC (fluorescence microscopy); format: cell-based; settings: MSCPP-EGFPHIS fusion peptide, cultured four hours, FIG. 1
From the text: Using an independently prepared 9-amino acid residue peptide as a phenotype linked via puromycin to a protein-RNA chimeric random peptide library (in vitro virus library; IVVL) having an mRNA coding sequence as the corresponding genotype, a conventional IVV (in vitro virus) method was used with human mesenchymal stem cells (hMSC) as the absorption target cells to repeat a reaction cycle in a culture system, thus isolating 81 types of peptide having penetration into mesenchymal stem cells (mesenchymal stem cell-penetrating peptide; MSCPP).
Next, fusion peptides (having a His tag formed from six histidine residues at the C-terminus of the fusion peptide) of each of the 81 isolated MSCPP and EGFP (excitation wavelength: 488 nm, fluorescence wavelength: 509 nm) (MSCPP-EGFPHIS) were produced. The penetration properties into hMSC were evaluated for each of the MSCPP-EGFPHIS. Cells of the hMSC line UE6E7T-3 were used as the hMSC. An RPMI 1640 medium containing 10% FBS was used as the medium. The UE6E7T-3 cells were inoculated into a 96-well plate, medium containing each MSCPP-EGFPHIS (5 μL of fusion peptide solution and 50 μL of medium per well) was added, and the mixtures were cultured for four hours. Following culturing, the cells were inspected under a fluorescence microscope. In FIG. 1, “EGFPHIS” represents EGFP having a His tag formed from six histidine residues at the C-terminus, but not being fused with an MSCPP peptide. Further, “Poly-r9” (9-residue continuous D-arginine) is a non-selective membrane-permeable peptide that is currently widely used.

[4] = system: normal human dermal fibroblasts (NHDF); experiment: Cell selectivity of FITC-labelled peptides: penetration into NHDF; format: cell-based; settings: FITC-labelled peptide 4 μM, four hours, FIG. 2
Method: as §1, §2

[5] = Degradation resistance in human plasma (MALDI-TOFMS); format: in vitro ADME; settings: human plasma 50% by mass, 0 to 120 minutes, FIG. 4
From the text: For the single peptide, tandem peptide, and tandem mutated peptide of MSCPP106 shown below in Table 2, the degradation resistance in human plasma was investigated. In Table 2, “tandem MSCPP106” describes a peptide composed of sequence containing two repeated amino acid sequences for MSCPP106 linked via a glycine residue spacer. Further, “tandem mut MSCPP106” describes a peptide composed of a sequence in which the cysteine residues in the amino acid sequence of tandem MSCPP106 have been methylated (mC).
Each of the above peptides was added to human plasma with a concentration of 50% by mass, the mixture was then sampled immediately after starting the degradation test (0 minutes), and then after 5 minutes, after 10 minutes, after 20 minutes, after 30 minutes, after 60 minutes and after 120 minutes, and each sample was analyzed by MALDI-TOFMS (Matrix Assisted Laser Desorption/Ionization-Time of Flight Mass Spectrometry). The ratio of the mass of the retained peptide that had not degraded at each of the sampling points from the start of the test, relative to the mass of the peptide (100% by mass) at the start of the test was calculated and graphed (see FIG. 4).

[6] = system: hMSC; experiment: Intracellular localization of [FAM]-tandem MSCPP106 in hMSC; format: cell-based, human; settings: [FAM]-labelled, 4 μM, fluorescence maintained in lysosomes, FIG. 6
Method: Next, the intracellular localization of [FAM]-tandem MSCPP106 was investigated. Specifically, hMSC were inoculated into a 24-well plate to achieve 4×10^4 cells/well, and four hours after the inoculation, the medium was replaced with an RPMI medium containing 10% FBS, and culturing was conducted for 60 hours. Following culturing, a medium (RPMI 1640 medium containing 10% FBS) containing 4 μM of [FAM]-tandem MSCPP106 was added to the hMSC and cultured for 24 hours. Following culturing, nuclear staining was conducted with Hoechst 33342 (excitation wavelength: 352 nm, fluorescence wavelength: 461 nm), lysosomes were also stained using LysoTracker (a registered trademark) RED DND-99 (a lysosome content marker, excitation wavelength: 555 nm, fluorescence wavelength: 584 nm), and the cultures were then observed using a phase difference/fluorescence microscope (magnification: 60×). In FIG. 6, “Merge” indicates a merged image of the FAM fluorescence image and the LysoTracker (a registered trademark) RED DND-99 fluorescence image.

[7] = system: CAF of the cancer stroma, subcutaneous tumor; experiment: Absorption into CAF of cancer stroma in scirrhous cancer model mouse; format: in vivo; settings: [FAM]-labelled, 300 μg intravenous, 30 minutes after injection, FIG. 8C
Method: Using the same method as Example 7, a scirrhous cancer model mouse was obtained. Subsequently, the obtained scirrhous cancer model mouse was injected intravenously with [FAM]-tandem MSCPP106 (300 μg). Subsequently, the pharmacokinetics of the peptide 30 minutes after the intravenous injection were analyzed by tissue analysis of the freshly dissected specimen of the peptide-administered mouse.
FIG. 8C is a series of phase difference microscope images and fluorescent images of the subcutaneous tumor. The upper two rows are images at a magnification of 20×, whereas the lower two rows are images at a magnification of 40×. Further, “Merge” represents merged images of each phase difference microscope image and each fluorescent image.

[8] = system: cancer stroma, subcutaneous tumor (BxPC3 cells and DsRed2 hMSC); experiment: Absorption of [FAM]-tandem and [FAM]-tandem mut MSCPP106 into cancer stroma in scirrhous pancreatic cancer model mice; format: in vivo, mouse; settings: [FAM]-labelled, 300 μg intravenous, 60 minutes after injection
From the text: Next, in order to investigate the functional importance of the cysteine within the peptide sequence (positioned second from the N-terminus), a comparison was made of the absorption into cancer stroma of [FAM]-tandem MSCPP106 and [FAM]-tandem mut MSCPP106 (having a sequence in which the N-terminus is labeled with FAM, and having a mutation in which the side-chain —SH group of the cysteine second from the N-terminus has been methylated). With the exception of using cloned hMSC cells that constantly expressed DsRed2, the same method as Example 7 was used to obtain scirrhous pancreatic cancer model mice. Subsequently, the obtained scirrhous pancreatic cancer model mice were injected intravenously with [FAM]-tandem MSCPP106 or [FAM]-tandem mut MSCPP106 (300 μg in each case). In each case, the pharmacokinetics of the peptide 60 minutes after the intravenous injection were then analyzed by tissue analysis of the freshly dissected specimen of the peptide-administered mouse.
FIG. 9B is a series of fluorescent images of subcutaneous tumors in mice administered with [FAM]-tandem MSCPP106 or [FAM]-tandem mut MSCPP106 (magnification: 4×).
FIG. 9C is a series of fluorescent images of a subcutaneous transplanted tumor in a mouse administered with tandem MSCPP106 (magnification: 4×, 20× and 40×). […]

Compound: KCAELFRHL [MSCPP106]
- absorption into hMSC [1]: high absorption and fixed selective absorption; also recorded: efficient absorption
- absorption into the pancreatic cancer cells BxPC3 [2]: low absorption
- fluorescence observed in hMSC [3]: Particularly strong fluorescence
- penetration into human bone marrow-derived mesenchymal stem cells (hMSC) [3]: exhibited penetration
- absorption into NHDF [4]: lower absorption into NHDF compared with the absorption into hMSC

Compound: RTHPVWSRT [MSCPP48]
- absorption into hMSC [1]: high absorption and fixed selective absorption
- penetration into human bone marrow-derived mesenchymal stem cells (hMSC) [3]: exhibited penetration

Compound: WPPLQRWRN [MSCPP33]
- absorption into hMSC [1]: high absorption and fixed selective absorption
- penetration into human bone marrow-derived mesenchymal stem cells (hMSC) [3]: exhibited penetration

Compound: CSC[C@H](NC(=O)[C@H](CCCCN)NC(=O)CNC(=O)[C@H](CC(C)C)NC(=O)[C@H](Cc1c[nH]cn1)NC(=O)[C@H](CCCNC(=N)N)NC(=O)[C@H](Cc1ccccc1)NC(=O)[C@H](CC(C)C)NC(=O)[C@H](CCC(=O)O)NC(=O)[C@H](C)NC(=O)[C@H](CSC)NC(=O)[C@@H](N)CCCCN)C(=O)N[C@@H](C)C(=O)N[C@@H](CCC(=O)O)C(=O)N[C@@H](CC(C)C)C(=O)N[C@@H](Cc1ccccc1)C(=O)N[C@@H](CCCNC(=N)N)C(=O)N[C@@H](Cc1c[nH]cn1)C(=O)N[C@@H](CC(C)C)C(=O)O [tandem mut MSCPP106, KmCAELFRHL-G-KmCAELFRHL] (H-KC(Me)AELFRHLGKC(Me)AELFRHL-OH; N-terminus and C-terminus assumed)
- degradation resistance in human plasma [5]: excellent degradation resistance compared with the single MSCPP106

Compound: RRWMQWPWH [MSCPP49]
- absorption into hMSC [1]: high absorption and fixed selective absorption
- penetration into human bone marrow-derived mesenchymal stem cells (hMSC) [3]: exhibited penetration

Compound: CC(C)C[C@H](NC(=O)[C@H](Cc1c[nH]cn1)NC(=O)[C@H](CCCNC(=N)N)NC(=O)[C@H](Cc1ccccc1)NC(=O)[C@H](CC(C)C)NC(=O)[C@H](CCC(=O)O)NC(=O)[C@H](C)NC(=O)[C@H](CS)NC(=O)[C@H](CCCCN)NC(=O)CNC(=O)[C@H](CC(C)C)NC(=O)[C@H](Cc1c[nH]cn1)NC(=O)[C@H](CCCNC(=N)N)NC(=O)[C@H](Cc1ccccc1)NC(=O)[C@H](CC(C)C)NC(=O)[C@H](CCC(=O)O)NC(=O)[C@H](C)NC(=O)[C@H](CS)NC(=O)[C@@H](N)CCCCN)C(=O)O [tandem MSCPP106, KCAELFRHL-G-KCAELFRHL] (H-KCAELFRHLGKCAELFRHL-OH; N-terminus and C-terminus assumed)
- resistance to intracellular digestion (degradation) [6]: at least 24 hours
- degradation resistance in human plasma [5]: excellent degradation resistance compared with the single MSCPP106
- absorption into the CAF of the cancer stroma [7]: selective absorption
- absorption into cancer stroma, comparison of peptides ([8]; FIG. 9B): even better absorption into cancer stroma than tandem mut MSCPP106
- absorption into hMSC-derived hCAF and mouse MSC-derived CAF ([8]; FIG. 9C): excellent absorption into both forms of CAF
